Values after ≈ are worked out from the molar mass of the structure shown. Where a SMILES comes first, the peptide text is derived from it. [ ]: non-standard residue; d: D form. Tic = O=C(O)[C@@H]1Cc2ccccc2CN1
Key:
Escherichia coli (JM109) = assay: MIC, CLSI microdilution; format: cell-based; details: MHB, 37 °C, 20h, OD read-out, at least triplicate
Description: Assays were performed according to the CLSI microdilution method. Briefly, the bacterial strains were inoculated and allowed to reach an OD600 of 0.08–0.13 prior to dilution to 10^6 CFU/mL in Mueller-Hinton broth (MHB). A bacterial suspension (50 μL) was then added to each well of a 96-well microplate containing serially diluted peptide solutions (50 μL in MHB) and incubated at 37 °C for 20h. A well containing sterilized medium was used as a sterility control and another well containing no added peptide served as a growth control.

[1] = test system: Pseudomonas putida (KT2440); details: 20 h
[2] = test system: Pseudomonas fluorescens (MF37); details: 20 h
[3] = test system: Pseudomonas aeruginosa (PA14); details: PA14, 20 h
[4] = test system: Burkholderia cenocepacia (J2315); details: 20 h
[5] = test system: Burkholderia thailendensis (ATCC700388); details: CLSI microdilution, MHB, 37 °C, 20h, OD read-out; at least triplicate
[6] = test system: Serratia marcescens (ATCC14756); details: ATCC14756, 20 h
[7] = test system: Bacillus circulans (LSPQ3543); details: 20 h
[8] = test system: Bacillus cereus (ATCC11778); details: ATCC11778, 20 h
[9] = test system: Actinobacillus pleuropneumoniae (4074); details: 20 h
Bacillus subtilis (PY79) = details: PY79, 20 h
Bacillus velezensis = details: 20 h
[10] = test system: Bacillus amyloliquefaciens (LMG22478); details: LMG22478, 20 h
[11] = test system: Staphylococcus aureus (ATCC6538#P); details: ATCC6538, 20 h
[12] = test system: Staphylococcus aureus (Newman); details: 20 h
[13] = test system: Pseudomonas aeruginosa (ATCC33350-Sero-2); details: ATCC33350, 20 h
[14] = test system: Escherichia coli ATCC25922; details: ATCC25922, 20 h
[15] = test system: Escherichia coli (O157 :H7); details: CLSI microdilution, MHB, 37 °C, 20h, OD read-out; at least triplicate
[16] = test system: Burkholderia cenocepacia (K56-2); details: 20 h
[17] = test system: Burkholderia cenocepacia (LMG18829); details: LMG18829, 20 h
[18] = test system: Burkholderia cenocepacia (LMG19240); details: CLSI microdilution, MHB, 37 °C, 20h, OD read-out; at least triplicate
[19] = test system: Burkholderia cenocepacia (CEP0511 Gvar3b); details: CLSI microdilution, MHB, 37 °C, 20h, OD read-out; at least triplicate
Bacillus subtilis (2597) = details: 2597, 20 h
DPP-IV = test system: DPP-IV; design: method as in PMID 18353507; details: cited from earlier work
[20] = relative to PACAP38; cited from earlier work

## CCCCCC(=O)N[C@@H](Cc1c[nH]cn1)C(=O)N[C@@H](CO)C(=O)N[C@@H](CC(=O)O)C(=O)NCC(=O)N[C@H](C(=O)N[C@@H](Cc1ccccc1)C(=O)N[C@H](C(=O)N[C@@H](CC(=O)O)C(=O)N[C@@H](CO)C(=O)N[C@@H](Cc1ccc(O)cc1)C(=O)N[C@@H](CO)C(=O)N[C@@H](CCCNC(=N)N)C(=O)N[C@@H](Cc1ccc(O)cc1)C(=O)N[C@@H](CCCNC(=N)N)C(=O)N[C@@H](CCCCN)C(=O)N[C@@H](CCC(N)=O)C(=O)N[C@@H](CCSC)C(=O)N[C@@H](C)C(=O)N[C@H](C(=O)N[C@@H](CCCCN)C(=O)N[C@@H](CCCCN)C(=O)N[C@@H](Cc1ccc(O)cc1)C(=O)N[C@@H](CC(C)C)C(=O)N[C@@H](C)C(=O)N[C@@H](C)C(=O)N[C@H](C(=O)N[C@@H](CC(C)C)C(=O)NCC(=O)N[C@@H](CCCCN)C(=O)N[C@@H](CCCNC(=N)N)C(=O)N[C@@H](Cc1ccc(O)cc1)C(=O)N[C@@H](CCCCN)C(=O)N[C@@H](CCC(N)=O)C(=O)N[C@@H](CCCNC(=N)N)C(=O)N[C@H](C(=O)N[C@@H](CCCCN)C(=O)N[C@@H](CC(N)=O)C(=O)N[C@@H](CCCCN)C(N)=O)C(C)C)C(C)C)C(C)C)[C@@H](C)O)[C@@H](C)CC [compound 2, N-hexanoyl-PACAP38]
Escherichia coli (JM109)
  MIC, Escherichia coli (JM109): 116 µg/mL (≈ 25 µM)
[1]
  MIC, Pseudomonas putida (KT2440): 77 µg/mL (≈ 16.6 µM)
[2]
  MIC, Pseudomonas fluorescens (MF37): >200 µg/mL
[3]
  MIC, Pseudomonas aeruginosa (PA14): >200 µg/mL
[4]
  MIC, Burkholderia cenocepacia (J2315): 10 µg/mL (≈ 2.16 µM)
[5]
  MIC, Burkholderia thailendensis (ATCC700388): >200 µg/mL
[6]
  MIC, Serratia marcescens (ATCC14756): >200 µg/mL
[7]
  MIC, Bacillus circulans (LSPQ3543): 58 µg/mL (≈ 12.5 µM)
[8]
  MIC, Bacillus cereus (ATCC11778): >200 µg/mL
[9]
  MIC, Actinobacillus pleuropneumoniae: 232 µg/mL (≈ 50.1 µM)
Bacillus subtilis (PY79)
  MIC, Bacillus subtilis (PY79): 12 µg/mL (≈ 2.59 µM)
Bacillus velezensis
  MIC, Bacillus velezensis: 87 µg/mL (≈ 18.8 µM)
[10]
  MIC, Bacillus amyloliquefaciens: 26 µg/mL (≈ 5.61 µM)
[11]
  MIC, Staphylococcus aureus (ATCC6538#P): >200 µg/mL
[12]
  MIC, Staphylococcus aureus (Newman): >200 µg/mL
[13]
  MIC, Pseudomonas aeruginosa (ATCC33350-Sero-2): >200 µg/mL
[14]
  MIC, Escherichia coli ATCC25922: >200 µg/mL
[15]
  MIC, Escherichia coli (O157 :H7): >200 µg/mL
[16]
  MIC, Burkholderia cenocepacia (K56-2): >200 µg/mL
[17]
  MIC, Burkholderia cenocepacia (LMG18829): >200 µg/mL
[18]
  MIC, Burkholderia cenocepacia (LMG19240): >200 µg/mL
[19]
  MIC, Burkholderia cenocepacia (CEP0511 Gvar3b): >200 µg/mL
Bacillus subtilis (2597)
  MIC, Bacillus subtilis (2597): 154 µg/mL (≈ 33.2 µM)
DPP-IV
  Metabolic stability against DPP-IV: improved metabolic stability
[20]
  Metabolic stability in human plasma: improved metabolic stability

## CC[C@H](C)[C@H](NC(=O)CNC(=O)[C@H](CC(=O)O)NC(=O)[C@H](CO)NC(=O)[C@@H](N)Cc1c[nH]cn1)C(=O)N1Cc2ccccc2C[C@H]1C(=O)N[C@H](C(=O)N[C@@H](CC(=O)O)C(=O)N[C@@H](CO)C(=O)N[C@@H](Cc1ccc(O)cc1)C(=O)N[C@@H](CO)C(=O)N[C@@H](CCCNC(=N)N)C(=O)N[C@@H](Cc1ccc(O)cc1)C(=O)N[C@@H](CCCNC(=N)N)C(=O)N[C@@H](CCCCN)C(=O)N[C@@H](CCC(N)=O)C(=O)N[C@@H](CCSC)C(=O)N[C@@H](C)C(=O)N[C@H](C(=O)N[C@@H](CCCCN)C(=O)N[C@@H](CCCCN)C(=O)N[C@@H](Cc1ccc(O)cc1)C(=O)N[C@@H](CC(C)C)C(=O)N[C@@H](C)C(=O)N[C@@H](C)C(=O)N[C@H](C(=O)N[C@@H](CC(C)C)C(=O)NCC(=O)N[C@@H](CCCCN)C(=O)N[C@@H](CCCNC(=N)N)C(=O)N[C@@H](Cc1ccc(O)cc1)C(=O)N[C@@H](CCCCN)C(=O)N[C@@H](CCC(N)=O)C(=O)N[C@@H](CCCNC(=N)N)C(=O)N[C@H](C(=O)N[C@@H](CCCCN)C(=O)N[C@@H](CC(N)=O)C(=O)N[C@@H](CCCCN)C(N)=O)C(C)C)C(C)C)C(C)C)[C@@H](C)O [compound 7, [Tic^6]PACAP38] (H-HSDGI[Tic]TDSYSRYRKQMAVKKYLAAVLGKRYKQRVKNK-NH2)
Escherichia coli (JM109)
  MIC, Escherichia coli (JM109): >200 µg/mL
[1]
  MIC, Pseudomonas putida (KT2440): 33 µg/mL (≈ 7.26 µM)
[2]
  MIC, Pseudomonas fluorescens (MF37): >200 µg/mL
[3]
  MIC, Pseudomonas aeruginosa (PA14): >200 µg/mL
[4]
  MIC, Burkholderia cenocepacia (J2315): 2 µg/mL (≈ 0.44 µM)
[5]
  MIC, Burkholderia thailendensis (ATCC700388): >200 µg/mL
[6]
  MIC, Serratia marcescens (ATCC14756): >200 µg/mL
[7]
  MIC, Bacillus circulans (LSPQ3543): 6 µg/mL (≈ 1.32 µM)
[8]
  MIC, Bacillus cereus (ATCC11778): >200 µg/mL
[9]
  MIC, Actinobacillus pleuropneumoniae: >200 µg/mL
Bacillus subtilis (PY79)
  MIC, Bacillus subtilis (PY79): 7 µg/mL (≈ 1.54 µM)
Bacillus velezensis
  MIC, Bacillus velezensis: 71 µg/mL (≈ 15.6 µM)
[10]
  MIC, Bacillus amyloliquefaciens: 21 µg/mL (≈ 4.62 µM)
[11]
  MIC, Staphylococcus aureus (ATCC6538#P): >200 µg/mL
[12]
  MIC, Staphylococcus aureus (Newman): >200 µg/mL
[13]
  MIC, Pseudomonas aeruginosa (ATCC33350-Sero-2): >200 µg/mL
[14]
  MIC, Escherichia coli ATCC25922: >200 µg/mL
[15]
  MIC, Escherichia coli (O157 :H7): >200 µg/mL
[16]
  MIC, Burkholderia cenocepacia (K56-2): >200 µg/mL
[17]
  MIC, Burkholderia cenocepacia (LMG18829): >200 µg/mL
[18]
  MIC, Burkholderia cenocepacia (LMG19240): >200 µg/mL
[19]
  MIC, Burkholderia cenocepacia (CEP0511 Gvar3b): >200 µg/mL
Bacillus subtilis (2597)
  MIC, Bacillus subtilis (2597): >200 µg/mL

## CSCC[C@H](NC(=O)[C@H](CCC(N)=O)NC(=O)[C@H](CCCCN)NC(=O)[C@H](CCCNC(=N)N)NC(=O)[C@H](Cc1ccc(O)cc1)NC(=O)[C@H](CCCNC(=N)N)NC(=O)[C@H](CO)NC(=O)[C@H](Cc1ccc(O)cc1)NC(=O)[C@@H](N)CO)C(=O)N[C@@H](C)C(=O)N[C@H](C(=O)N[C@@H](CCCCN)C(=O)N[C@@H](CCCCN)C(=O)N[C@@H](Cc1ccc(O)cc1)C(=O)N[C@@H](CC(C)C)C(=O)N[C@@H](C)C(=O)N[C@@H](C)C(=O)N[C@H](C(=O)N[C@@H](CC(C)C)C(=O)NCC(=O)N[C@@H](CCCCN)C(=O)N[C@@H](CCCNC(=N)N)C(=O)N[C@@H](Cc1ccc(O)cc1)C(=O)N[C@@H](CCCCN)C(=O)N[C@@H](CCC(N)=O)C(=O)N[C@@H](CCCNC(=N)N)C(=O)N[C@H](C(=O)N[C@@H](CCCCN)C(=O)N[C@@H](CC(N)=O)C(=O)N[C@@H](CCCCN)C(N)=O)C(C)C)C(C)C)C(C)C [compound 10, PACAP(9–38)] (H-SYSRYRKQMAVKKYLAAVLGKRYKQRVKNK-NH2)
Escherichia coli (JM109)
  MIC, Escherichia coli (JM109): >183 µg/mL
[1]
  MIC, Pseudomonas putida (KT2440): >183 µg/mL
[4]
  MIC, Burkholderia cenocepacia (J2315): 19 µg/mL (≈ 5.19 µM)
[9]
  MIC, Actinobacillus pleuropneumoniae: >183 µg/mL
Bacillus subtilis (PY79)
  MIC, Bacillus subtilis (PY79): >183 µg/mL
[10]
  MIC, Bacillus amyloliquefaciens: >183 µg/mL
[16]
  MIC, Burkholderia cenocepacia (K56-2): >183 µg/mL
Bacillus subtilis (2597)
  MIC, Bacillus subtilis (2597): >183 µg/mL
